The values that follow come from patent US9951081B1, “Chlorin e6 derivative and pharmaceutically acceptable salt thereof and process for preparing and use of the same” (priority 2016, dated 2018).

In general, IC50 refers to the point on the concentration scale where inhibition reaches its midpoint.

Where two headings read alike, the source gives them in different places.

In assay [1] the test system is mice melanoma cell (B16-F10). Kind of assay: In vitro darktoxicity and PDT killing effect (CCK-8), B16-F10. It counts as cell-based. Conditions: for PDT anti-cancer activity (in words): light dose of 8 J/cm^2. An excerpt:
(§1) Human non-small cell lung cancer cellA549 and mice melanoma cell B16-F10 provided by Cell bank of Shanghai in Chinese Academy of Sciences were selected as cell strains.
(§2) 660 nm semiconductor laser therapeutic equipments manufactured by Baifei biomedical company of Shanghai was selected as a laser light source, with the largest output power of 2 W.
(§3) 1) Cell strains of tumors: culture of human non-small cell lung cancer cell (A549) and mice melanoma cell (B16-F10): frozen cells were taken out of liquid nitrogen, placed in a water bath at […]. […] The medium was renewed once every two days.
(§4) 2) Preparation of reagents: compounds of the present application to be tested and positive control drug Talaporfin were dissolved in a suitable amount of 0.1 M NaOH, adjusted pH to 7.4 by 0.1 M HCl. Normal saline was added to prepare drug stock solution in a suitable concentration.
(§5) 3) Detecting darktoxicity and PDT killing effects to the two tumor cells of compounds to be tested and positive control drug: 100 μL of 5×10^3/mL cell suspension was added into each well of 96-well plate, placed in a incubator at 37° C., 5% CO2 for 24 h. after removing cell medium, fresh mediums containing different concentration of samples were added, opened with three complex holes, and incubated for 24 h at 37° C. and 5% CO2 (volume concentration). After adding fresh medium, no light irradiated (darktoxicity) or 660 nm wavelength laser was used to irradiate (light dose was 8 J/cm^2) (phototoxicity). Cells were incubated for another 24 h. Cell medium containing drugs were removed and fresh medium was added. 200 μL medium containing 10% (v/v) CCK-8 (Dojindo Laboratories, Japan) was added into each well, and incubated for 1.5 h. Microplate reader (Tecan, Switzerland) was used to measure absorbance of each well at a wavelength of 450 nm.

Assay [2] concerns human non-small cell lung cancer cell (A549). Kind of assay: In vitro darktoxicity and PDT killing effect (CCK-8), A549. It counts as cell-based. To be noted: for PDT anti-cancer activity (in words): light dose of 8 J/cm^2.
From the text: as §1, §2, §3, §4, §5

Setting [3] is: 660 nm laser, light dose 8 J/cm^2, read-out: Phototoxicity (IC50).
Setting [4] is: no light irradiated, 24 h drug incubation, read-out: Darktoxicity (IC50).

In the case of `CCC1=C(C)c2cc3[nH]c(cc4nc(c(CC(=O)N[C@@H](CCCCN)C(=O)O)c5[nH]c(cc1n2)c(C)c5C(=O)O)C(CCC(=O)O)C4C)c(C)c3C(C)OC` (stereo partly drawn) [I19, N^α-[3-(1-methoxy)ethyl-3-devinylchlorine6-15^2-acyl]-L-lysine], the “Ratio of Darktoxicity and Phototoxicity” value is recorded as 84.41 in assay [1] and greater than 156.25 in assay [2]. The IC50 was 2280 nM in assay [1] (setting [3]), 192000 nM in assay [1] (setting [4]), 1920 nM in assay [2] (setting [3]) and greater than 300000 nM in assay [2] (setting [4]).
In the case of `CCCCCCOC(C)c1c(C)c2cc3nc(c(CC(=O)N[C@@H](CC(=O)O)C(=O)O)c4[nH]c(cc5nc(cc1[nH]2)C(C)=C5CC)c(C)c4C(=O)O)[C@@H](CCC(=O)O)[C@@H]3C` (stereo partly drawn) [I3, N-[3-(1-n-hexyloxy)ethyl-3-devinylchlorine6-15^2-acyl]-L-aspartic acid], the “Ratio of Darktoxicity and Phototoxicity” value worked out at 215.65 in assay [1] and 438.34 in assay [2]. In addition, the IC50 turned out to be 890 nM in assay [1] (setting [3]), 192000 nM in assay [1] (setting [4]), 650 nM in assay [2] (setting [3]) and 285000 nM in assay [2] (setting [4]). The “PDT anti-cancer activity (in words)” value in assay [1] and in assay [2] was “best” each time. The figures for the “PDT anti-tumor activity, times that of Talaporfin” value in assay [1] (relative to Talaporfin) and in assay [2] (relative to Talaporfin) were 12.07 times and 13.63 times, respectively. Also, the “ratio of darktoxicity-phototoxicity, times that of Talaporfin” value in assay [1] (relative to Talaporfin) was determined as 13.64 times; in assay [2] (relative to Talaporfin) it was 14.04 times.
For `CCCCCCOC(C)c1c(C)c2cc3nc(c(CC(=O)N[C@@H](CCCCN)C(=O)O)c4[nH]c(cc5nc(cc1[nH]2)C(C)=C5CC)c(C)c4C(=O)O)C(CCC(=O)O)C3C` (stereo partly drawn) [I21, N-[3-(1-n-hexyloxy)ethyl-3-devinylchlorine6-15^2-acyl]-L-lysine], the “Ratio of Darktoxicity and Phototoxicity” value in assay [1] came out at 171.31; in assay [2], 370.30. The IC50 was found to be 1050 nM in assay [1] (setting [3]), 180000 nM in assay [1] (setting [4]), 790 nM in assay [2] (setting [3]) and 293000 nM in assay [2] (setting [4]). In addition, the “PDT anti-cancer activity (in words)” value in assay [1] and in assay [2] was “best” in each case.
With `CCC1=C(C)c2cc3[nH]c(cc4nc(c(CC(=O)N[C@@H](CCC(=O)O)C(=O)O)c5[nH]c(cc1n2)c(C)c5C(=O)O)[C@@H](CCC(=O)O)[C@@H]4C)c(C)c3C(C)OCCOC` (stereo partly drawn) [I13, N-[3-[1-(2-methoxy)ethyoxyl]ethyl-3-devinylchlorine6-15^2-acyl]-L-glutamic acid], the “Ratio of Darktoxicity and Phototoxicity” value in assay [1] worked out at 92.93; in assay [2] it was 213.90. The 50% inhibitory concentration (IC50) came out at 1720 nM in assay [1] (setting [3]), 160000 nM in assay [1] (setting [4]), 1250 nM in assay [2] (setting [3]) and 267000 nM in assay [2] (setting [4]).
